Measured values published in US5705662A, “17-(3-imino-2-alkylpropenyl)-5β, 14β-androstane derivatives active on the cardiovascular system, processes for their preparation and pharmaceutical compositions containing same” (Sigma-Tau Industrie Farmaceutiche Riunite S.p.A., priority 1994, dated 1998).
pIC50: −log10 of the molar value.

Key:
[1] = J. Med. Chem. 1978, 21, 284; Quant. Struct.-Act. Relat. 1988, 7, 160; cited from earlier work
Na^+,K^+ -ATPase [2] = conditions: J. Med. Chem. 1978, 21, 284; Quant. Struct.-Act. Relat. 1988, 7, 160; DE 4,227,605; DE 4,227,626; cited from earlier work
Na^+,K^+ -ATPase [3] = molecular target: T1, Na^+,K^+ -ATPase (Canis lupus familiaris, UniProt P50997); assay: inhibition of the activity of the purified Na+,K+-ATPase (% hydrolysis of 32P-ATP); type: biochemical; conditions: for IC50: purified Na+,K+-ATPase, 32P-ATP hydrolysis, read-out: Inhibitory Activity log IC50 (converted)
T1 construct: Na^+,K^+ -ATPase receptor purified according to Jorghensen; from tissue
Text: (§1) To test the affinity for the receptor site of the Na^+,K^+ -ATPase and the agonist or antagonist activity on the enzyme, the following tests were used:
b) inhibition of the activity of the purified Na^+,K^+ -ATPase measured as % of hydrolysis of ^32 P-ATP in presence and in absence of the tested compound (Doucet A. et al. Am. J. Physiol., 1986, 251, F851)

Na^+,K^+ -ATPase [4] = molecular target: T1, Na^+,K^+ -ATPase; assay: displacement of the specific 3H-ouabain binding from the purified Na+,K+-ATPase receptor; conditions: for IC50: 3H-ouabain displacement, purified Na+,K+-ATPase, read-out: Binding ^3 H-Ouab. Displacement log IC50 (converted)
Text: as §1
a) displacement of the specific ^3 H-ouabain binding from the Na^+,K^+ -ATPase receptor purified according to Jorghensen (Jorghensen P., BBA. 1974, 356, 36) and Erdmann (Erdmann E. et al., Arzneim. Forsh., 1984, 34, 1314);

C[C@]12CC[C@H](O)C[C@H]1CC[C@@H]1[C@@H]2CC[C@]2(C)C(=NNC(=N)N)CC[C@]12O [17-guanidinoimino-5β-androstane-3β,14β-diol]
positive inotropic activity (in words) [1]: weak positive inotropic agents | inhibition of Na+,K+-ATPase (in words) (Na^+,K^+ -ATPase [2]): weak inhibitors of Na^+,K^+ -ATPase

CC(/C=N/NC1=NCCN1)=C\[C@H]1CC[C@]2(O)[C@@H]3CC[C@@H]4C[C@@H](O)CC[C@]4(C)[C@H]3CC[C@]12C [Comp. I-ab, (E,E)-17β-[3-(2-Imidazolin-2-yl)hydrazono-2-methyl-1-propenyl]-5β-androstane-3β,14β-diol]
IC50 (Na^+,K^+ -ATPase [3]): 3.16 µM | IC50 (Na^+,K^+ -ATPase [4]): 0.0631 µM

CC(/C=N/NC1=NCCN1C)=C\[C@H]1CC[C@]2(O)[C@@H]3CC[C@@H]4C[C@@H](O)CC[C@]4(C)[C@H]3CC[C@]12C [Comp. I-ac, (E,E)-17β-[3-(1-Methyl-2-imidazolin-2-yl)hydrazono-2-methyl-1-propenyl]-5β-androstane-3β,14β-diol]
pIC50 (Na^+,K^+ -ATPase [3]): 5.40 | IC50 (Na^+,K^+ -ATPase [4]): 0.316 µM

CC(/C=N/NC1=NCCCN1)=C\[C@H]1CC[C@]2(O)[C@@H]3CC[C@@H]4C[C@@H](O)CC[C@]4(C)[C@H]3CC[C@]12C [Comp. I-ad, (E,E)-17β-[3-(1,4,5,6-Tetrahydro-2-pyrimidinyl)hydrazono-2-methyl-1-propenyl]-5β-androstane-3β,14β-diol]
pIC50 (Na^+,K^+ -ATPase [3]): 5.60 | IC50 (Na^+,K^+ -ATPase [4]): 0.0631 µM

CC(/C=N/NC(=N)NCCN(C)C)=C\[C@H]1CC[C@]2(O)[C@@H]3CC[C@@H]4C[C@@H](O)CC[C@]4(C)[C@H]3CC[C@]12C [Comp. I-ae, (E,E)-17β-{3-[3-(2-Dimethylaminoethyl)guanidinoimino]-2-methyl-1-propenyl}-5β-androstane-3β,14β-diol]
pIC50 (Na^+,K^+ -ATPase [3]): 5.20 | pIC50 (Na^+,K^+ -ATPase [4]): 6.30

CC(/C=N/OCCCN)=C\[C@H]1CC[C@]2(O)[C@@H]3CC[C@@H]4C[C@@H](O)CC[C@]4(C)[C@H]3CC[C@]12C [Comp. I-ag]
IC50 (Na^+,K^+ -ATPase [3]): 0.0501 µM | IC50 (Na^+,K^+ -ATPase [4]): 0.0251 µM

CC(/C=N/OCCN(C)C)=C\[C@H]1CC[C@]2(O)[C@@H]3CC[C@@H]4C[C@@H](O)CC[C@]4(C)[C@H]3CC[C@]12C [Comp. I-ah, (E,E)-17β-[3-(2-Dimethylaminoethoxyimino)-2-methyl-1-propenyl]-5β-androstane-3β,14β-diol]
IC50 (Na^+,K^+ -ATPase [3]): 0.0631 µM | IC50 (Na^+,K^+ -ATPase [4]): 0.02 µM

CC(/C=N/OCCCN(C)C)=C\[C@H]1CC[C@]2(O)[C@@H]3CC[C@@H]4C[C@@H](O)CC[C@]4(C)[C@H]3CC[C@]12C [Comp. I-ai, (E,E)-17β-[3-(3-Dimethylaminopropoxyimino)-2-methyl-1-propenyl]-5β-androstane-3β,14β-diol]
IC50 (Na^+,K^+ -ATPase [3]): 0.0631 µM | IC50 (Na^+,K^+ -ATPase [4]): 0.0316 µM

CC(/C=N/OCCNC(=N)N)=C\[C@H]1CC[C@]2(O)[C@@H]3CC[C@@H]4C[C@@H](O)CC[C@]4(C)[C@H]3CC[C@]12C [Comp. I-aj, (E,E)-17β-[3-(2-Guanidinoethoxyimino)-2-methyl-1-propenyl]-5β-androstane-3β,14β-diol]
IC50 (Na^+,K^+ -ATPase [3]): 0.126 µM | pIC50 (Na^+,K^+ -ATPase [4]): 7.30

CC(/C=N/OCCCNC(=N)N)=C\[C@H]1CC[C@]2(O)[C@@H]3CC[C@@H]4C[C@@H](O)CC[C@]4(C)[C@H]3CC[C@]12C [Comp. I-ak, (E,E)-17β-[3-(3-Guanidinopropoxyimino)-2-methyl-1-propenyl]-5β-androstane-3β,14β-diol]
pIC50 (Na^+,K^+ -ATPase [3]): 6.70 | IC50 (Na^+,K^+ -ATPase [4]): 0.0631 µM

CCC(/C=N/NC(=N)N)=C\[C@H]1CC[C@]2(O)[C@@H]3CC[C@@H]4C[C@@H](O)CC[C@]4(C)[C@H]3CC[C@]12C [Comp. I-al, (E,E)-17β-(3-Guanidinoimino-2-ethyl-1-propenyl)-5β-androstane-3β,14β-diol]
pIC50 (Na^+,K^+ -ATPase [3]): 6.00 | pIC50 (Na^+,K^+ -ATPase [4]): 6.90

CCC(/C=N/OCCN)=C\[C@H]1CC[C@]2(O)[C@@H]3CC[C@@H]4C[C@@H](O)CC[C@]4(C)[C@H]3CC[C@]12C [Comp. I-am, (E,E)-17β-[3-(2-Aminoethoxyimino)-2-ethyl-1-propenyl]-5β-androstane-3β,14β-diol]
IC50 (Na^+,K^+ -ATPase [3]): 0.126 µM | IC50 (Na^+,K^+ -ATPase [4]): 0.0631 µM

CCC(/C=N/OCCCN)=C\[C@H]1CC[C@]2(O)[C@@H]3CC[C@@H]4C[C@@H](O)CC[C@]4(C)[C@H]3CC[C@]12C [Comp. I-an, (E,E)-17β-[3-(3-Aminopropoxyimino)-2-ethyl-1-propenyl]-5β-androstane-3β,14β-diol]
IC50 (Na^+,K^+ -ATPase [3]): 0.316 µM | pIC50 (Na^+,K^+ -ATPase [4]): 7.00

CCC(/C=N/OCCN(C)C)=C\[C@H]1CC[C@]2(O)[C@@H]3CC[C@@H]4C[C@@H](O)CC[C@]4(C)[C@H]3CC[C@]12C [Comp. I-ao, (E,E)-17β-[3-(2-Dimethylaminoethoxyimino)-2-ethyl-1-propenyl]-5β-androstane-3β,14β-diol]
IC50 (Na^+,K^+ -ATPase [3]): 0.501 µM | pIC50 (Na^+,K^+ -ATPase [4]): 6.90

CCC(/C=N/OCCCN(C)C)=C\[C@H]1CC[C@]2(O)[C@@H]3CC[C@@H]4C[C@@H](O)CC[C@]4(C)[C@H]3CC[C@]12C [Comp. I-ap, (E,E)-17β-[3-(3-Dimethylaminopropoxyimino)-2-ethyl-1-propenyl]-5β-androstane-3β,14β-diol]
IC50 (Na^+,K^+ -ATPase [3]): 0.631 µM | pIC50 (Na^+,K^+ -ATPase [4]): 6.70

CC(/C=N/NC(=N)N)=C\[C@@]1(O)CC[C@]2(O)[C@@H]3CC[C@@H]4C[C@@H](O)CC[C@]4(C)[C@H]3CC[C@]12C [Comp. I-aq, (E,E)-17β-(3-Guanidinoimino-2-methyl-1-propenyl]-5β-androstane-3β,14β,17α-triol]
pIC50 (Na^+,K^+ -ATPase [3]): 5.40 | IC50 (Na^+,K^+ -ATPase [4]): 0.398 µM

CC(/C=N/OCCN)=C\[C@@]1(O)CC[C@]2(O)[C@@H]3CC[C@@H]4C[C@@H](O)CC[C@]4(C)[C@H]3CC[C@]12C [Comp. I-ar, (E,E)-17β-[3-(2-Aminoethoxyimino)-2-methyl-1-propenyl]-5β-androstane-3β,14β,17α-triol]
pIC50 (Na^+,K^+ -ATPase [3]): 5.60 | IC50 (Na^+,K^+ -ATPase [4]): 0.316 µM

CC(/C=N/OCCN(C)C)=C\[C@@]1(O)CC[C@]2(O)[C@@H]3CC[C@@H]4C[C@@H](O)CC[C@]4(C)[C@H]3CC[C@]12C [Comp. I-as, (E,E)-17β-[3-(2-Dimethylaminoethoxyimino)-2-methyl-1-propenyl]-5β-androstane-3β,14β,17α-triol]
pIC50 (Na^+,K^+ -ATPase [3]): 5.50 | IC50 (Na^+,K^+ -ATPase [4]): 0.398 µM

CC(/C=N/NC(=N)N)=C\[C@H]1CC[C@]2(O)[C@@H]3CC[C@@H]4C[C@@H](OCCN5CCCC5)CC[C@]4(C)[C@H]3CC[C@]12C [Comp. I-at, (E,E)-36-[2-(1-Pyrrolidinyl)ethoxy]-17β-(3-guanidinoimino-2-methyl-1-propenyl]-5β-androstane-14β-ol]
IC50 (Na^+,K^+ -ATPase [3]): 0.158 µM | pIC50 (Na^+,K^+ -ATPase [4]): 7.40

CC(/C=N/OCCN)=C\[C@H]1CC[C@]2(O)[C@@H]3CC[C@@H]4C[C@@H](OCCN5CCCC5)CC[C@]4(C)[C@H]3CC[C@]12C [Comp. I-au]
IC50 (Na^+,K^+ -ATPase [3]): 0.0398 µM | IC50 (Na^+,K^+ -ATPase [4]): 0.02 µM

CC(/C=N/NC(=N)N)=C\[C@H]1CC[C@]2(O)[C@@H]3CC[C@@H]4C[C@@H](OCCCN5CCCC5)CC[C@]4(C)[C@H]3CC[C@]12C [Comp. I-av]
IC50 (Na^+,K^+ -ATPase [3]): 0.2 µM | pIC50 (Na^+,K^+ -ATPase [4]): 7.30

CC(/C=N/OCCN)=C\[C@H]1CC[C@]2(O)[C@@H]3CC[C@@H]4C[C@@H](OCC(C)N5CCCC5)CC[C@]4(C)[C@H]3CC[C@]12C (stereo partly drawn) [Comp. I-aw, (E,E)-3β-[2-(1-Pyrrolidinyl)propoxy]-17β-[3-(2-aminoethoxyimino)-2-methyl-1-propenyl]-5β-androstane-14β-ol]
IC50 (Na^+,K^+ -ATPase [3]): 0.0631 µM | IC50 (Na^+,K^+ -ATPase [4]): 0.0251 µM

CC(/C=N/OCCN)=C\[C@H]1CC[C@]2(O)[C@@H]3CC[C@@H]4C[C@@H](OCCN)CC[C@]4(C)[C@H]3CC[C@]12C [Comp. I-ay, (E,E)-3β-(2-Aminoethoxy)-17β-[3-(2-aminoethoxyimino)-2-methyl-1-propenyl]-5β-androstane-14β-ol]
IC50 (Na^+,K^+ -ATPase [3]): 0.0316 µM | IC50 (Na^+,K^+ -ATPase [4]): 0.0251 µM

CC(/C=N/NC(=N)N)=C\[C@H]1CC[C@]2(O)[C@@H]3CC[C@@H]4C[C@@H](OCCCN)CC[C@]4(C)[C@H]3CC[C@]12C [Comp. I-az]
IC50 (Na^+,K^+ -ATPase [3]): 0.0316 µM | IC50 (Na^+,K^+ -ATPase [4]): 0.0251 µM

CC(/C=N/OCCN)=C\[C@H]1CC[C@]2(O)[C@@H]3CC[C@@H]4C[C@@H](OCCCN)CC[C@]4(C)[C@H]3CC[C@]12C [Comp. I-ba]
IC50 (Na^+,K^+ -ATPase [3]): 0.0398 µM | IC50 (Na^+,K^+ -ATPase [4]): 0.02 µM

CC(/C=N/NC(=N)N)=C\[C@H]1CC[C@]2(O)[C@@H]3CC[C@@H]4C[C@H](O)CC[C@]4(C)[C@H]3CC[C@]12C [Comp. I-bb, (E,E)-17β-(3-Guanidinoimino-2-methyl-1-propenyl)-5β-androstane-3α,14β-diol]
pIC50 (Na^+,K^+ -ATPase [3]): 5.50 | pIC50 (Na^+,K^+ -ATPase [4]): 6.20

CC(/C=N/OCCN)=C\[C@H]1CC[C@]2(O)[C@@H]3CC[C@@H]4C[C@H](O)CC[C@]4(C)[C@H]3CC[C@]12C [Comp. I-bc, (E,E)-17β-[3-(2-Aminoethoxyimino)-2-methyl-1-propenyl]-5β-androstane-3α,14β-diol]
pIC50 (Na^+,K^+ -ATPase [3]): 5.60 | pIC50 (Na^+,K^+ -ATPase [4]): 6.30

CC(/C=N/OCCN)=C\[C@H]1CC[C@]2(O)[C@@H]3CC[C@@H]4C[C@H](OCCN5CCCC5)CC[C@]4(C)[C@H]3CC[C@]12C [Comp. I-bd]
pIC50 (Na^+,K^+ -ATPase [3]): 5.50 | pIC50 (Na^+,K^+ -ATPase [4]): 6.30

CC(/C=N/OCCN)=C\[C@H]1CC[C@]2(O)[C@@H]3CC[C@@H]4C[C@H](OCCCN)CC[C@]4(C)[C@H]3CC[C@]12C [Comp. I-be, (E,E)-3α-(3-Aminopropoxy)-17β-[3-(2-aminoethoxyimino)-2-methyl-1-propenyl]-5β-androstane-14β-ol]
pIC50 (Na^+,K^+ -ATPase [3]): 5.40 | pIC50 (Na^+,K^+ -ATPase [4]): 6.20

CC(/C=N/NC(=N)N)=C\[C@H]1CC[C@]2(O)[C@@H]3CC[C@@H]4C[C@@H](OCCN)CC[C@]4(C)[C@H]3CC[C@]12C [I-ax]
IC50 (Na^+,K^+ -ATPase [3]): 0.0398 µM | IC50 (Na^+,K^+ -ATPase [4]): 0.0251 µM
